{"source": "patent US20050113286A1", "about": "“Methods for treating congestive heart failure” (priority 2002, published 2005)", "key": {"[1]": {"system": "patients with chronic decompensated HF", "test": "FUSION I: left ventricular ejection fraction by echocardiography", "assay_type": "in vivo, human", "excerpt": "(§1) Surrogate measures with mechanistic implications included measures of serum aldosterone, serum endothelin-1, and serial measurements of ventricular function using ejection fractions derived from echocardiography. Pre-infusion aldosterone and endothelin-1 concentrations were collected and analyzed at a core lab (The Mayo Clinic, Rochester, Minn.) at weeks 1, 4, 8, and 12; post-infusion concentrations were collected at weeks 1 and 12. Left ventricular ejection fractions were serially measured and read at a core lab (Midwest Heart Foundation Echocardiographic Core Laboratory, Lombard, Ill.)."}, "[2]": {"system": "patients with chronic decompensated HF", "test": "FUSION I: global clinical status, 7-point ordinal scale", "assay_type": "in vivo, human", "conditions": "for Investigators' assessment: Reported improvement from baseline (%): moderately or markedly improved; for Investigators' assessment: Mean change from baseline / Patients' assessment: Mean change from baseline: scale −3 to +3", "method": "At weeks 4, 8, and 12, the change from baseline global clinical status was assessed by both the patient and the investigator; assessments were rated on a 7-point ordinal scale from markedly worse (−3) to markedly better (+3).^1l,12 In addition, patients' assessment of quality of life was measured at baseline and at weeks 4, 8, and 12 using the Minnesota Living With HF questionnaire. (Rector TS, Kubo SH, Cohn J N. Patients' self-assessment of their congestive heart failure. Part 2: Content, reliability and validity of a new measure, The Minnesota Living with Heart Failure Questionnaire. Heart Failure 1987;October/November:198-209.)"}, "aldosterone": {"system": "aldosterone", "test": "FUSION I: serum aldosterone", "assay_type": "in vivo, human", "excerpt": "as §1"}, "[3]": {"system": "patients with acutely decompensated congestive heart failure", "conditions": "in vivo; cited from earlier work"}, "[4]": {"system": "acute decompensated heart failure", "conditions": "compared with milrinone; cited from earlier work"}, "[5]": {"system": "symptoms of acute decompensated HF", "conditions": "VMAC trial; cited from earlier work"}, "[6]": {"system": "patients with chronic decompensated HF", "test": "FUSION I: use of IV inotropic agents during study visits", "assay_type": "in vivo, human", "excerpt": "Patients in all treatment groups were allowed to receive any long-term cardiac or noncardiac medications, including IV diuretics, according to investigator discretion. At each visit, the investigator ensured that optimal medical treatment regimens were established. Patients who were randomized to usual care only were allowed to receive positive inotropic agents (milrinone, dobutamine, or dopamine) only if the investigator believed that inotropic support was required to alleviate symptomatic HF and yield hemodynamic stability. Inotropic agents were not permitted in the nesiritide groups unless they were urgently required to prevent hospitalization. During hospitalization, there was no restriction on the use of inotropic agents or nesiritide, regardless of treatment group."}, "[7]": {"conditions": "week 4, both nesiritide groups, count in cell 125"}, "[8]": {"conditions": "week 12, 0.01 μg/kg/min, count in cell 51"}, "[9]": {"conditions": "all patients who received nesiritide"}}, "data": [{"substance": "Nesiritide: a recombinant form of human B-type natriuretic peptide (BNP)", "values": [{"measurement": "Mean change in ejection fraction from baseline to week 12", "setting": "[1]; 0.005-μg/kg/min", "value": "+4.0±3.3%"}, {"measurement": "Mean change in ejection fraction from baseline to week 12", "setting": "[1]; 0.01-μg/kg/min, p=0.03 compared with the usual-care group", "value": "+5.3±5.0%"}, {"measurement": "Global clinical status, investigators' assessments, compared with usual-care group", "setting": "[2]; 0.01-μg/kg/min group, p≦0.004 at all time points", "value": "significant improvement"}, {"measurement": "Global clinical status, patients' assessments, among treatment groups", "setting": "[2]; all treatment groups", "value": "no significant differences"}, {"measurement": "Patients' assessment: Reported improvement from baseline (%)", "setting": "[2]; week 4, 0.005 μg/kg/min, count in cell 62", "value": "62 (50%)"}, {"measurement": "Investigators' assessment: Reported improvement from baseline (%)", "setting": "[2]; week 4, 0.005 μg/kg/min, count in cell 63", "value": "63 (29%)"}, {"measurement": "Investigators' assessment: Mean change from baseline", "setting": "[2]; week 4, 0.005 μg/kg/min", "value": "0.9 ± 1.28"}, {"measurement": "Patients' assessment: Mean change from baseline", "setting": "[2]; week 4, 0.005 μg/kg/min", "value": "1.3 ± 1.33"}, {"measurement": "Patients' assessment: Reported improvement from baseline (%)", "setting": "[2]; week 4, 0.01 μg/kg/min, count in cell 63", "value": "63 (51%)"}, {"measurement": "Investigators' assessment: Reported improvement from baseline (%)", "setting": "[2]; week 4, 0.01 μg/kg/min, count in cell 62", "value": "62 (47%)"}, {"measurement": "Patients' assessment: Mean change from baseline", "setting": "[2]; week 4, 0.01 μg/kg/min", "value": "1.4 ± 1.20"}, {"measurement": "Investigators' assessment: Mean change from baseline", "setting": "[2]; week 4, 0.01 μg/kg/min, p < 0.05 compared with usual care", "value": "1.1 ± 1.28"}, {"measurement": "Patients' assessment: Reported improvement from baseline (%)", "setting": "[2]; [7]", "value": "125 (50%)"}, {"measurement": "Investigators' assessment: Reported improvement from baseline (%)", "setting": "[2]; [7]", "value": "125 (38%)"}, {"measurement": "Patients' assessment: Mean change from baseline", "setting": "[2]; week 4, both nesiritide groups", "value": "1.4 ± 1.26"}, {"measurement": "Investigators' assessment: Mean change from baseline", "setting": "[2]; week 4, both nesiritide groups, p < 0.05 compared with usual care", "value": "1.0 ± 1.28"}, {"measurement": "Patients' assessment: Reported improvement from baseline (%)", "setting": "[2]; week 8, 0.005 μg/kg/min, count in cell 53", "value": "53 (72%)"}, {"measurement": "Investigators' assessment: Reported improvement from baseline (%)", "setting": "[2]; week 8, 0.005 μg/kg/min, count in cell 50", "value": "50 (54%)"}, {"measurement": "Patients' assessment: Mean change from baseline", "setting": "[2]; week 8, 0.005 μg/kg/min", "value": "1.7 ± 1.26"}, {"measurement": "Investigators' assessment: Mean change from baseline", "setting": "[2]; week 8, 0.005 μg/kg/min, p < 0.05 compared with usual care", "value": "1.3 ± 1.35"}, {"measurement": "Patients' assessment: Reported improvement from baseline (%)", "setting": "[2]; week 8, 0.01 μg/kg/min, count in cell 56", "value": "56 (68%)"}, {"measurement": "Investigators' assessment: Reported improvement from baseline (%)", "setting": "[2]; week 8, 0.01 μg/kg/min, count in cell 54", "value": "54 (59%)"}, {"measurement": "Patients' assessment: Mean change from baseline", "setting": "[2]; week 8, 0.01 μg/kg/min", "value": "1.8 ± 1.26"}, {"measurement": "Investigators' assessment: Mean change from baseline", "setting": "[2]; week 8, 0.01 μg/kg/min, p < 0.05 compared with usual care", "value": "1.6 ± 1.19"}, {"measurement": "Patients' assessment: Reported improvement from baseline (%)", "setting": "[2]; week 8, both nesiritide groups, count in cell 109", "value": "109 (70%)"}, {"measurement": "Investigators' assessment: Reported improvement from baseline (%)", "setting": "[2]; week 8, both nesiritide groups, count in cell 104", "value": "104 (57%)"}, {"measurement": "Patients' assessment: Mean change from baseline", "setting": "[2]; week 8, both nesiritide groups", "value": "1.8 ± 1.25"}, {"measurement": "Investigators' assessment: Mean change from baseline", "setting": "[2]; week 8, both nesiritide groups, p < 0.05 compared with usual care", "value": "1.4 ± 1.27"}, {"measurement": "Patients' assessment: Reported improvement from baseline (%)", "setting": "[2]; week 12, 0.005 μg/kg/min, count in cell 54", "value": "54 (76%)"}, {"measurement": "Investigators' assessment: Reported improvement from baseline (%)", "setting": "[2]; week 12, 0.005 μg/kg/min, count in cell 51", "value": "51 (55%)"}, {"measurement": "Patients' assessment: Mean change from baseline", "setting": "[2]; week 12, 0.005 μg/kg/min", "value": "1.9 ± 1.39"}, {"measurement": "Investigators' assessment: Mean change from baseline", "setting": "[2]; week 12, 0.005 μg/kg/min, p < 0.05 compared with usual care", "value": "1.4 ± 1.31"}, {"measurement": "Patients' assessment: Reported improvement from baseline (%)", "setting": "[2]; [8]", "value": "51 (55%)"}, {"measurement": "Investigators' assessment: Reported improvement from baseline (%)", "setting": "[2]; [8]", "value": "51 (59%)"}, {"measurement": "Patients' assessment: Mean change from baseline", "setting": "[2]; week 12, 0.01 μg/kg/min", "value": "1.7 ± 1.09"}, {"measurement": "Investigators' assessment: Mean change from baseline", "setting": "[2]; week 12, 0.01 μg/kg/min, p < 0.05 compared with usual care", "value": "1.7 ± 1.16"}, {"measurement": "Patients' assessment: Reported improvement from baseline (%)", "setting": "[2]; week 12, both nesiritide groups, count in cell 105", "value": "105 (66%)"}, {"measurement": "Investigators' assessment: Reported improvement from baseline (%)", "setting": "[2]; week 12, both nesiritide groups, count in cell 102", "value": "102 (57%)"}, {"measurement": "Patients' assessment: Mean change from baseline", "setting": "[2]; week 12, both nesiritide groups", "value": "1.8 ± 1.25"}, {"measurement": "Investigators' assessment: Mean change from baseline", "setting": "[2]; week 12, both nesiritide groups, p < 0.05 compared with usual care", "value": "1.5 ± 1.24"}, {"measurement": "Post-infusion levels of aldosterone versus baseline", "setting": "aldosterone; after the week 12 infusion, 0.01-μg/kg/min and all-nesiritide group, p<0.02 (FIG. 2A)", "value": "significant changes from baseline"}, {"measurement": "Mean pre-infusion aldosterone values over time", "setting": "aldosterone; any treatment group", "value": "no significant changes"}, {"measurement": "Mean change from baseline (±standard deviation) in post-infusion aldosterone", "setting": "aldosterone; week 1, 0.005-μg/kg/min", "value": "-5.0 ± 14.8", "unit": "pg/mL"}, {"measurement": "Mean change from baseline (±standard deviation) in post-infusion aldosterone", "setting": "aldosterone; week 1, 0.01-μg/kg/min, p=0.02 compared to baseline", "value": "-10.9 ± 22.8", "unit": "pg/mL"}, {"measurement": "Mean post-infusion values of aldosterone versus baseline", "setting": "aldosterone; weeks 1 and 12, both nesiritide groups", "value": "significant declines"}, {"measurement": "Ventricular rhythm disturbances", "setting": "[3]", "value": "did not engender ventricular rhythm disturbances"}, {"measurement": "Length of stay", "setting": "[4]", "value": "shorter length of stay"}, {"measurement": "Readmissions", "setting": "[4]", "value": "fewer readmissions"}, {"measurement": "Resolution of the symptoms of acute decompensated HF versus IV diuretics or nitroglycerin", "setting": "[5]", "value": "more rapid resolution"}, {"measurement": "Patients receiving IV inotropic agents during study visits through week 12, number", "setting": "[6]; 0.005 μg/kg/min, n = 72", "value": 0}, {"measurement": "Patients receiving IV inotropic agents during study visits through week 12, %", "setting": "[6]; 0.01 μg/kg/min, n = 69", "value": 3, "unit": "%"}, {"measurement": "Patients receiving IV inotropic agents during study visits through week 12, number", "setting": "[6]; 0.01 μg/kg/min, n = 69", "value": 2}, {"measurement": "Patients who also received an inotropic agent during a study visit because of decompensated HF, %", "setting": "[6]; [9]", "value": "< 2", "unit": "%"}, {"measurement": "Patients who also received an inotropic agent during a study visit because of decompensated HF, number", "setting": "[6]; [9]", "value": 2}]}]}
